Measurements from patent US10870647B2, “Imidazopyridine derivative, method for preparing same, and pharmaceutical composition containing same as active ingredient for preventing or treating cancer” (DAEGU-GYEONGBUK MEDICAL INNOVATION FOUNDATION, priority 2016, dated 2020).
Like-named read-outs stand apart in the source and are kept apart here.

Tests used:
Assay in all cases: Kinase selectivity, scanMAX Kinase assay panel (DiscoverX), % control at 1 uM
Type in all cases: binding
[1] = molecular target: T1, scanMAX Kinase assay panel (Homo sapiens, UniProt Q15418); conditions: 1 uM, read-out: Percent Control (%)
T1 construct: purchased DiscoverX
T1 sequence (Q15418 whole entry): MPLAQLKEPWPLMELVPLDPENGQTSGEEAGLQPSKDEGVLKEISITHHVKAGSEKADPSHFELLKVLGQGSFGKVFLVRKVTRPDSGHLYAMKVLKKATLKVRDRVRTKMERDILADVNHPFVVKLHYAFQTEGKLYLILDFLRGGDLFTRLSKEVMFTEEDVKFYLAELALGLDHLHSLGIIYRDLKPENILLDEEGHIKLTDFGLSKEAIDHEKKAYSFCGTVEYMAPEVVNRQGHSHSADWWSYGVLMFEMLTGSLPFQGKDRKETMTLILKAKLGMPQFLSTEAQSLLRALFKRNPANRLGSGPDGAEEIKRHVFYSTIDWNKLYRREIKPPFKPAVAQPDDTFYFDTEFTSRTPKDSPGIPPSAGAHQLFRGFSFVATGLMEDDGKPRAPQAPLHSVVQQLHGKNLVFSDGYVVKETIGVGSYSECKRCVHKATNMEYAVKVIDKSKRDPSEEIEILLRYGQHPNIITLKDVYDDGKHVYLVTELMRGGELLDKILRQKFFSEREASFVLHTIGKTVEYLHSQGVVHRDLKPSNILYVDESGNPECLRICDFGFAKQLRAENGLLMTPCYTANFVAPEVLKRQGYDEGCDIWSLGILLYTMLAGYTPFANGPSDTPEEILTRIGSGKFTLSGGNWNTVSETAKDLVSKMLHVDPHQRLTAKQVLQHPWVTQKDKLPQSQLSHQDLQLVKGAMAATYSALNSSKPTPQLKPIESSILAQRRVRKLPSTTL
Outline: (§1)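 Read-out is percent of control, derived from the signal with compound relative to positive and negative controls: (compound − positive)/(negative − positive) × 100. Each enzyme received test drug at 1 uM in DMSO, and values under 35% count as active.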

[2] = molecular target: T2, scanMAX Kinase assay panel (Homo sapiens, UniProt Q9HCP0); conditions: CSNK1G1; 1 uM; read-out: Percent Control (%)
T2 construct: purchased DiscoverX
T2 sequence (Q9HCP0 whole entry): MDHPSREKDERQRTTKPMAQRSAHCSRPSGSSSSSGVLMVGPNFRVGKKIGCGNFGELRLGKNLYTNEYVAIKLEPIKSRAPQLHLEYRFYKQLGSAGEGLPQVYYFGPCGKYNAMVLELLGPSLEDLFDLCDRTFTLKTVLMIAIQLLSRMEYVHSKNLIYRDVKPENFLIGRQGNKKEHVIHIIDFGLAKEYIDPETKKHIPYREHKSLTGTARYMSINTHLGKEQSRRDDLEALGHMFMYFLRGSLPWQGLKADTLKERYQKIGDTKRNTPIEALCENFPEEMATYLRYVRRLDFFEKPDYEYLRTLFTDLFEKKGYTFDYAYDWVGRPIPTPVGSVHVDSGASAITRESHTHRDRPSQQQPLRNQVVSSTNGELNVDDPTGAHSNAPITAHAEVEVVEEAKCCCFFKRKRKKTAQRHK
Outline: as §1

[3] = molecular target: T3, scanMAX Kinase assay panel (Homo sapiens, UniProt P43405); conditions: SYK; 1 uM; read-out: Percent Control (%)
T3 construct: purchased DiscoverX
Outline: as §1

[4] = molecular target: T4, scanMAX Kinase assay panel (Homo sapiens, UniProt Q9H3Y6); conditions: SRMS; 1 uM; read-out: Percent Control (%)
T4 construct: purchased DiscoverX
T4 sequence (Q9H3Y6 whole entry): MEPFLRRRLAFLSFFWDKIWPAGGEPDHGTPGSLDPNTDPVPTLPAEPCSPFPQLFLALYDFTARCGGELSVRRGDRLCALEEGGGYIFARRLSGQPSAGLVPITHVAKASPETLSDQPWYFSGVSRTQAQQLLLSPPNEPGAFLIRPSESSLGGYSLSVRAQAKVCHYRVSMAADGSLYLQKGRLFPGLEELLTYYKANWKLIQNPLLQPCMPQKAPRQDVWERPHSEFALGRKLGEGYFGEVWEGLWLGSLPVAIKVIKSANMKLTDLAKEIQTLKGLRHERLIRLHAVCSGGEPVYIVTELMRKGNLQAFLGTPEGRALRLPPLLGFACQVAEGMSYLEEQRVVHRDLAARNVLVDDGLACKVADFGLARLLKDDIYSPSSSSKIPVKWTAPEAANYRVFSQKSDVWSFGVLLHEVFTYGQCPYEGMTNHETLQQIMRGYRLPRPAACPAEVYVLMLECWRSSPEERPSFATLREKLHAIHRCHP
Outline: as §1

[5] = molecular target: T5, scanMAX Kinase assay panel (Homo sapiens, UniProt Q9NSY1); conditions: BIKE; 1 uM; read-out: Percent Control (%)
T5 construct: purchased DiscoverX
T5 sequence (Q9NSY1 whole entry): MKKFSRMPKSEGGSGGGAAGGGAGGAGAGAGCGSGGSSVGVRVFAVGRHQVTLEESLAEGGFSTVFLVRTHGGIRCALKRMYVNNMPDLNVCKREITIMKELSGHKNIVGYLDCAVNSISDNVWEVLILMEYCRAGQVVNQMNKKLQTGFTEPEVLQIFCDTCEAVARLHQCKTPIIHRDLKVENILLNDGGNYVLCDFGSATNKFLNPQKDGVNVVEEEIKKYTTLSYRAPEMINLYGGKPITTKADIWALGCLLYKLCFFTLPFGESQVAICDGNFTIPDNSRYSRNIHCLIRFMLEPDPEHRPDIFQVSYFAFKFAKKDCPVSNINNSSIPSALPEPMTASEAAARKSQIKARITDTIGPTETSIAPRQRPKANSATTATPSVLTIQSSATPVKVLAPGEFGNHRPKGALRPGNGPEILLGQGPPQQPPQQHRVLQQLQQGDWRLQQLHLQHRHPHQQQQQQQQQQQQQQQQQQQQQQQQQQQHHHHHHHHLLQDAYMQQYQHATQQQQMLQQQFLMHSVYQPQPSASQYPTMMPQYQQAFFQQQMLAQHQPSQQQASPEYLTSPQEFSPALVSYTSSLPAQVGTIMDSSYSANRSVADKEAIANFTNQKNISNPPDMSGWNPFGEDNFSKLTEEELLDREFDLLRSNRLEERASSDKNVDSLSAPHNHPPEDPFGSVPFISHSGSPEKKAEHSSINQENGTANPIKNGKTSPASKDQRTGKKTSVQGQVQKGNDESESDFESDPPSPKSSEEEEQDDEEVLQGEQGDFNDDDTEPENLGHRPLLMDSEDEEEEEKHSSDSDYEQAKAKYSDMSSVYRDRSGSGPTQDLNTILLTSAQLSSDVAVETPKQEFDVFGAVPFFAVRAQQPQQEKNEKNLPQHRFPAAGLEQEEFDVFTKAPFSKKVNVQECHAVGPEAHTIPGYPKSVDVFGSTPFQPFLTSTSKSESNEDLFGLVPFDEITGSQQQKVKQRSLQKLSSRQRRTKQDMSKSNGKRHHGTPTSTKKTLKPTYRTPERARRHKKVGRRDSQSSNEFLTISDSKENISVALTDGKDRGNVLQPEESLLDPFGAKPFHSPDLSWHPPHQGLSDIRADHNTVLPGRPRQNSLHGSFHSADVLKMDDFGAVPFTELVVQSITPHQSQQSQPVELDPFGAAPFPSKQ
Outline: as §1

[6] = molecular target: T6, scanMAX Kinase assay panel (Homo sapiens, UniProt P00533, G719S); conditions: EGFR (G719S); 1 uM; read-out: Percent Control (%)
T6 construct: purchased DiscoverX
Outline: as §1

[7] = molecular target: T7, scanMAX Kinase assay panel (Homo sapiens, UniProt Q02763); conditions: TIE2; 1 uM; read-out: Percent Control (%)
T7 construct: purchased DiscoverX
T7 sequence (Q02763 23-1124): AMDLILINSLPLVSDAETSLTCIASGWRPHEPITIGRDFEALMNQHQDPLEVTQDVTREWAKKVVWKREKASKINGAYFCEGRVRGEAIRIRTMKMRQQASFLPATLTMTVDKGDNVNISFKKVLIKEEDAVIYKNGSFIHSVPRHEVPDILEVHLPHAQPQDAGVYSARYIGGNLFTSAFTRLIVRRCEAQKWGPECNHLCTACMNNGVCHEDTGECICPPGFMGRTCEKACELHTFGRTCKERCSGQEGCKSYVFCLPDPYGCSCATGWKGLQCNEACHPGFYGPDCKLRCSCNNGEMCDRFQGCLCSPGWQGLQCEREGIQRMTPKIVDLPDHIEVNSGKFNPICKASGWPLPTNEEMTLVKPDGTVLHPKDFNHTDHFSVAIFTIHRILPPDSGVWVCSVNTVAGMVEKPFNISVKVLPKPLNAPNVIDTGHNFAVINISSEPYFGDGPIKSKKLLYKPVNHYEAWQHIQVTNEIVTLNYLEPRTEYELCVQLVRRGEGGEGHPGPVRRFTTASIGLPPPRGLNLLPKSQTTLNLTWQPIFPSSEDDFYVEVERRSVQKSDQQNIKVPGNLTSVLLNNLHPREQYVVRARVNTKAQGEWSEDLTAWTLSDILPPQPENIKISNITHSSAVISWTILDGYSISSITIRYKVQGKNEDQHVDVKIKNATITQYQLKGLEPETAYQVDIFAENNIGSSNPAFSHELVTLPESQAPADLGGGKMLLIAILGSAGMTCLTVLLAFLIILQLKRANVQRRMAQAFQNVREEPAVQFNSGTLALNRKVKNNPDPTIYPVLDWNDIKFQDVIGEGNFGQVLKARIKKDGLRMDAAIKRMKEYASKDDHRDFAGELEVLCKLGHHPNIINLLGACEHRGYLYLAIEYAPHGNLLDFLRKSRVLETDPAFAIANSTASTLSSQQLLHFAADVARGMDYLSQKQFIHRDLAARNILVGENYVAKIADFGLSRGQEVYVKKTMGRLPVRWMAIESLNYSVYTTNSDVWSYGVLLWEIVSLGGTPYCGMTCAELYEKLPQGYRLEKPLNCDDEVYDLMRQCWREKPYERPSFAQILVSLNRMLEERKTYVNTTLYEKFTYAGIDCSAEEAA
Outline: as §1

[8] = molecular target: T8, scanMAX Kinase assay panel (Homo sapiens, UniProt Q13555); conditions: CAMK2G; 1 uM; read-out: Percent Control (%)
T8 construct: purchased DiscoverX
T8 sequence (Q13555 whole entry): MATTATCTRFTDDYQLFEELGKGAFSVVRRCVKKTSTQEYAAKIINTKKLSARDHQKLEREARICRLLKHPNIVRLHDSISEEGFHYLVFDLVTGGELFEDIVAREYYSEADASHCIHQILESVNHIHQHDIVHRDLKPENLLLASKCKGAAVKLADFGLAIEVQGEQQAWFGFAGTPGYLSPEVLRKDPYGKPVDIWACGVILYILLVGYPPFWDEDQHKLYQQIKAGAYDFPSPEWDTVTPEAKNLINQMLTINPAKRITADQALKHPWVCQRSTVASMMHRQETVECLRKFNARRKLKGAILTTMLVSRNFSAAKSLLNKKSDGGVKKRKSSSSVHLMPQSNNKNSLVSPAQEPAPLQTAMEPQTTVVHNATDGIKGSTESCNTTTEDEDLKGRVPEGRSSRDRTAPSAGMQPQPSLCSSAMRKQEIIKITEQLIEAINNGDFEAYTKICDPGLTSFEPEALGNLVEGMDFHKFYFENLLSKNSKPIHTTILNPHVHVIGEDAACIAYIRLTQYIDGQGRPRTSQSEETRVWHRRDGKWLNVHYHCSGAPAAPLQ
Outline: as §1

[9] = molecular target: T9, scanMAX Kinase assay panel (Homo sapiens, UniProt Q13188); conditions: MST2; 1 uM; read-out: Percent Control (%)
T9 construct: purchased DiscoverX
T9 sequence (Q13188 1-491): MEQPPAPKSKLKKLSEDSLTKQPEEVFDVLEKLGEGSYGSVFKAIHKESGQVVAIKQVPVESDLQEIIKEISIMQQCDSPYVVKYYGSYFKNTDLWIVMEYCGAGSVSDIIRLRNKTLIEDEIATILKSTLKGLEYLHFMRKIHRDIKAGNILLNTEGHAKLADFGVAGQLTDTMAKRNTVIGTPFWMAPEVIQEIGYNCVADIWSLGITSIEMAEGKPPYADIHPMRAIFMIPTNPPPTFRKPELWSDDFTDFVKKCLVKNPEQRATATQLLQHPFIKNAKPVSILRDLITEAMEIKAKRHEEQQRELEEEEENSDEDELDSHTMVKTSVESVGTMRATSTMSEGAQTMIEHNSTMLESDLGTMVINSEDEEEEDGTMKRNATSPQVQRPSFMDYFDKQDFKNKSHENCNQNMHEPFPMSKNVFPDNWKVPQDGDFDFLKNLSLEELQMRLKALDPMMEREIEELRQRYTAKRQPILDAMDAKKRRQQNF
Outline: as §1

[10] = molecular target: T10, scanMAX Kinase assay panel (Homo sapiens, UniProt P52564); conditions: MEK6; 1 uM; read-out: Percent Control (%)
T10 construct: purchased DiscoverX
T10 sequence (P52564 1-334): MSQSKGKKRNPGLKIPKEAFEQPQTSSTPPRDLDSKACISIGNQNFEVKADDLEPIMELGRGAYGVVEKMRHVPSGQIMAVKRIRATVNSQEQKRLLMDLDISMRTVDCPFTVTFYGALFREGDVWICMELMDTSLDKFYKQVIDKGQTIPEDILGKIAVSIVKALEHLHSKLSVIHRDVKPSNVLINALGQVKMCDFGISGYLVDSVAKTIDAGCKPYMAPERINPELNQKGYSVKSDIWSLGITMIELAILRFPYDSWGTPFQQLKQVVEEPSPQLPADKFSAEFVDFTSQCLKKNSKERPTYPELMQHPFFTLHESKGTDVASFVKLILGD
Outline: as §1

Which results are given for Cc1ccc(C(=O)Nc2ccc(CN3CCN(C)CC3)c(C(F)(F)F)c2)cc1C#Cc1cnc2c(Nc3cnn(C)c3)cccn12 [Example 1, 4-methyl-3-((8-((1-methyl-1H-pyrazol-4-yl)amino)imidazo[1,2-a]pyridin-3-yl)ethynyl)-N-(4-((4-methylpiperazin-1-yl)methyl)-3-(trifluoromethyl)phenyl)benzamide]?
remaining binding at 1 µM ([1]; RSK1 (Kin.Dom.1-N-terminal)): 60%; remaining binding at 1 µM ([1]; RSK1 (Kin.Dom.2-C-terminal)): 64%; remaining binding at 1 µM [2]: 73%; remaining binding at 1 µM [3]: 2%; remaining binding at 1 µM [4]: 8%; remaining binding at 1 µM [5]: 81%; remaining binding at 1 µM [6]: 1%; remaining binding at 1 µM [7]: 0%; remaining binding at 1 µM [8]: 73%; remaining binding at 1 µM [9]: 5%; remaining binding at 1 µM [10]: 86%

Which results are given for Cc1cn(-c2cc(NC(=O)c3ccc(C)c(C#Cc4cnc5c(Nc6cnn(C)c6)cccn45)c3)cc(C(F)(F)F)c2)cn1 [Example 12, 4-methyl-N-(3-(4-methyl-1H-imidazol-1-yl)-5-(trifluoromethyl)phenyl)-3-((8-((1-methyl-1H-pyrazol-4-yl)amino)imidazo[1,2-a]pyridin-3-yl)ethynyl)benzamide]?
remaining binding at 1 µM ([1]; RSK1 (Kin.Dom.1-N-terminal)): 79%; remaining binding at 1 µM ([1]; RSK1 (Kin.Dom.2-C-terminal)): 69%; remaining binding at 1 µM [2]: 95%; remaining binding at 1 µM [3]: 12%; remaining binding at 1 µM [4]: 75%; remaining binding at 1 µM [5]: 85%; remaining binding at 1 µM [6]: 20%; remaining binding at 1 µM [7]: 0%; remaining binding at 1 µM [8]: 80%; remaining binding at 1 µM [9]: 100%; remaining binding at 1 µM [10]: 89%

With Cc1ccc(NC(=O)C2(C(=O)Nc3ccc(F)cc3)CC2)cc1C#Cc1cnc2c(Nc3cnn(C(C)C)c3)cccn12 [Example 78] as the compound, how does the remaining binding at 1 µM ([1]; RSK1 (Kin.Dom.1-N-terminal)) read?
Its remaining binding at 1 µM is 100%.

And the remaining binding at 1 µM ([1]; RSK1 (Kin.Dom.2-C-terminal))?
The remaining binding at 1 µM was 95%.

And the remaining binding at 1 µM [2]?
The remaining binding at 1 µM was 100%.

And the remaining binding at 1 µM [3]?
The remaining binding at 1 µM was 78%.

And the remaining binding at 1 µM [4]?
The remaining binding at 1 µM was 94%.

What about the remaining binding at 1 µM [5] of the same compound?
Its remaining binding at 1 µM is 100%.

And the remaining binding at 1 µM [6]?
The remaining binding at 1 µM was 100%.

What about the remaining binding at 1 µM [7] of the same compound?
Its remaining binding at 1 µM is 16%.

And the remaining binding at 1 µM [8]?
Its remaining binding at 1 µM is 100%.

And the remaining binding at 1 µM [9]?
Its remaining binding at 1 µM is 85%.

What about the remaining binding at 1 µM [10] of the same compound?
Its remaining binding at 1 µM is 100%.
